From patent US20230102590A1, “USE OF POLYETHER COMPOUND” (Senju Pharmaceutical Co., Ltd., priority 2020, published 2023)
Where two headings read alike, the source gives them in different places.

Legend:
[1] = Experimental: Fujifilm Wako Pure Chemical
The poorly soluble compound content in the recovered filtrate was measured by liquid chromatography specified below (Shimadzu (Kyoto), high performance liquid chromatograph Prominence).
As the standard product of triamcinolone acetonide, a reagent from the Pharmaceutical and Medical Device Regulatory Science Society of Japan (Japan) was used. • 50 μL of sample solution and standard solution was measured by liquid chromatography under the following conditions.
Column temperature: constant temperature of about 40° C. Mobile phase A: 0.1% trifluoroacetic acid/10% acetonitrile solution Mobile phase B: 0.1% trifluoroacetic acid/90% acetonitrile solution Delivery of mobile phase: the ratio of mixture of mobile phase A and mobile phase B was changed as follows to control the linear concentration gradient.
Detergent: 50% acetonitrile solution Flow rate: 1.0 mL/min Temperature within autosampler: 5° C.
The following conditions were tested as additives to a poorly soluble compound
wherein SA+B=solubility of a poorly soluble compound in a composition comprising poloxamer 407 and PEG 4000 SB=solubility of a poorly soluble compound in a composition comprising PEG 4000, but not poloxamer 407 SA=solubility of a poorly soluble compound in a composition comprising poloxamer 407, but not PEG 4000 S0=solubility of a poorly soluble compound in a composition that comprises neither poloxamer 407 nor PEG 4000.
The solubility in a composition of PEG and poloxamer was measured in the same manner described above for additional compounds.
For cabozantinib and telmisartan, the pH of the aqueous solution with the base composition described above was changed to 7.4. For rebamipide, the aqueous solution with the base composition was as follow. • 0.05% sodium hydrogen phosphate hydrate • 0.45% sodium dihydrogen phosphate hydrate • sodium hydroxide and hydrochloric acid (suitable amount was added to adjust the pH to 6.0)
Additional compounds were measured in the same manner described above.
Cabozantinib and telmisartan were tested with a solution adjusted to a pH of 7.4. Rebamipide was tested with a solution adjusted to a pH of 6.0. Other compounds were tested with a solution adjusted to a pH of 7.0.

[2] = Basic solubility at 25° C. in ethanol, PEG 400, propylene glycol (PG) and buffer solution; solubility ratio non-aqueous solvent / buffer solution; settings: for Solubility ratio of solvent with respect to buffer solution Ethanol/buffer solution / Solubility ratio of solvent with respect to buffer solution PEG400/buffer solution / Solubility ratio of solvent with respect to buffer solution PG/buffer solution: buffer pH 7.0 (pH 7.4 for cabozantinib and telmisartan; pH 6.0 for rebamipide)
Experimental: In this regard, the buffer solution had the following composition: • 0.2% sodium hydrogen phosphate hydrate • 0.3% sodium dihydrogen phosphate hydrate • sodium hydroxide and hydrochloric acid (suitable amount was added to adjust the pH to 7.0; however, pH was adjusted to 7.4 for cabozantinib and telmisartan).
However, the following composition was used for rebamipide instead: • 0.05% sodium hydrogen phosphate hydrate • 0.45% sodium dihydrogen phosphate hydrate • sodium hydroxide and hydrochloric acid (suitable amount was added to adjust the pH to 6.0).
Each compound was measured in the same manner described above. In the Table, the molecular weight and Log P values are reference values (or values calculated from reference values).

[3] = reference values; pH upon measurement: rebamipide pH 7.0, telmisartan pH 7.4, cilostazol pH 7.0, aprepitant pH 7, cabozantinib pH 7.4; cited from earlier work
[4] = format: physicochemical
Experimental: The solubility of a poorly soluble compound was measured by further adding a water-soluble macromolecule.
DKS Co. Ltd. • SBE-β-CD . . . MedChemExpress LLC • HP-β-CD . . . Fujifilm Wako Pure Chemical

Compound | Solubility scale factor at 5° C. 30% PEG 4000/10% poloxamer 407 [1] | Solubility scale factor at 15° C. 30% PEG 4000/10% poloxamer 407 [1] | Solubility ratio of solvent with respect to buffer solution Ethanol/buffer solution ([2]; 25° C.) | Solubility ratio of solvent with respect to buffer solution PEG400/buffer solution ([2]; 25° C.) | Solubility ratio of solvent with respect to buffer solution PG/buffer solution ([2]; 25° C.) | Log P [3] | effect of the addition on solubility of celecoxib in PEG/poloxamer composition [4] | further results
CC1(C)O[C@@H]2C[C@H]3[C@@H]4C[C@H](F)C5=CC(=O)C=C[C@]5(C)[C@@]4(F)[C@@H](O)C[C@]3(C)[C@]2(C(=O)CO)O1 [Fluocinolone acetonide] | 19.75 | 18.27 | 2685.78 | 1803.78 | 2007.24 | 2.48 |  | Solubility, Ethanol ([2]; 25° C.): 4.635%; Solubility, PG (propylene glycol) ([2]; 25° C.): 3.224%
hydroxypropyl-β-cyclodextrin [HP-β-CD] |  |  |  |  |  |  | hardly improved the solubility | 
O=C1Nc2ccc(Cl)cc2[C@@](C#CC2CC2)(C(F)(F)F)O1 [Efavirenz] |  |  |  |  |  | 5.40 |  | state of the test composition [1]: converted into gel; Solubility, PG (propylene glycol) ([2]; 25° C.): 48.3%; Solubility, Buffer solution ([2]; 25° C., phosphate buffer pH 7.0): 0.0007278%
C[C@@H](O[C@H]1OCCN(Cc2n[nH]c(=O)[nH]2)[C@H]1c1ccc(F)cc1)c1cc(C(F)(F)F)cc(C(F)(F)F)c1 [Aprepitant] | 1377.77 | 236.00 | 129308.39 | 60601.21 | 43995.44 | 4.8 ± 0.1 |  | Solubility, Ethanol [2]: 2.483%
CCCc1nc2c(C)cc(-c3nc4ccccc4n3C)cc2n1Cc1ccc(-c2ccccc2C(=O)O)cc1 [Telmisartan] | 2.03 | 1.71 | 287.77 | 431.18 | 120.32 | 3.2 |  | 
COc1cc2nccc(Oc3ccc(NC(=O)C4(C(=O)Nc5ccc(F)cc5)CC4)cc3)c2cc1OC [Cabozantinib] | 288.38 | 74.57 | 1949439.39 | 25935652.78 | 1213400.25 | 3.92 |  | 
O=C(NC(Cc1cc(=O)[nH]c2ccccc12)C(=O)O)c1ccc(Cl)cc1 (stereo not shown) [Rebamipide] | 1.13 | 1.07 | 2.67 | 5.41 | 4.88 | −0.22 |  | solubilization of compound due to poloxamer 407 by an addition of PEG 4000 [1]: lowest; Solubility, Ethanol ([2]; 25° C.): 0.06615%; Solubility, Buffer solution ([2]; 25° C., phosphate buffer adjusted to pH 6.0 (rebamipide)): 0.02473%
sulfobutylether-β-cyclodextrin [SBE-β-CD] |  |  |  |  |  |  | improved solubility overall | effect on dissolution of a poorly soluble compound due to poloxamer 407 and PEG 4000 [4]: further improved the dissolution
O=C1CCc2cc(OCCCCc3nnnn3C3CCCCC3)ccc2N1 [Cilostazol] | 8.97 | 10.22 | 761.36 | 1146.93 | 761.23 | 2.76 |  | Solubility, PEG400 ([2]; 25° C.): 0.4342%
carboxymethyl cellulose [CMC] |  |  |  |  |  |  | improved solubility overall | effect on dissolution of a poorly soluble compound due to poloxamer 407 and PEG 4000 [4]: tendency to further assist dissolution
